According to patent publication US8680012B2, “4-phenyl-pyrane-3,5-diones,4-phenyl-thiopyrane-3,6-diones and cyclohexanetriones as novel herbicides” (Syngenta Crop Protection LLC, priority 2006, dated 2014):

Assays:
Type in all cases: in vivo
Setaria faberi (SETFA) [1] = assay: Example B pre-emergence herbicidal activity, glasshouse pot test; conditions: 312 h, evaluated after 13 days, read-out: Pre-emergence activity SETFA (100=total damage to plant; 0=no damage to plant); for pest or weed control at 1000 g/ha: rate 1000 g/ha; for pest or weed control at 250 g/ha: rate 250 g/ha
How it was run: (§1)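 Herbicidal effect was judged 13 days after treatment as percent-style damage (100 = total kill). Seeds in standard soil had grown 1 day (pre) or 8 days (post) in a 24/16 °C, 14 h light, 65% humidity glasshouse before spraying with compound in acetone/water (50:50) containing 0.5% Tween 20.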

[2] = test system: Alopecurus myosuroides (ALOMY); assay: as above; conditions: 312 h, evaluated after 13 days, read-out: Pre-emergence activity ALOMY (100=total damage to plant; 0=no damage to plant); for pest or weed control at 1000 g/ha: rate 1000 g/ha; for pest or weed control at 250 g/ha: rate 250 g/ha
How it was run: as §1

Avena fatua (AVEFA) [3] = assay: as above; conditions: 312 h, evaluated after 13 days, read-out: Pre-emergence activity AVEFA (100=total damage to plant; 0=no damage to plant); for pest or weed control at 1000 g/ha: rate 1000 g/ha; for pest or weed control at 250 g/ha: rate 250 g/ha
How it was run: as §1

[4] = test system: Amaranthus retroflexus (AMARE); assay: as above; conditions: 312 h, evaluated after 13 days, read-out: Pre-emergence activity AMARE (100=total damage to plant; 0=no damage to plant); for pest or weed control at 1000 g/ha: rate 1000 g/ha; for pest or weed control at 250 g/ha: rate 250 g/ha
How it was run: as §1

[5] = test system: Echinochloa crus-galli (ECHCG); assay: as above; conditions: 312 h, evaluated after 13 days, read-out: Pre-emergence activity ECHCG (100=total damage to plant; 0=no damage to plant); for pest or weed control at 1000 g/ha: rate 1000 g/ha; for pest or weed control at 250 g/ha: rate 250 g/ha
How it was run: as §1

Solanum nigrum (SOLNI) [6] = assay: as above; conditions: 312 h, evaluated after 13 days, read-out: Pre-emergence activity SOLNI (100=total damage to plant; 0=no damage to plant); for pest or weed control at 1000 g/ha: rate 1000 g/ha; for pest or weed control at 250 g/ha: rate 250 g/ha
How it was run: as §1

Setaria faberi (SETFA) [7] = assay: Example B post-emergence herbicidal activity, glasshouse pot test; conditions: 312 h, evaluated after 13 days, read-out: Post-emergence activity SETFA (100=total damage to plant; 0=no damage to plant); for pest or weed control at 1000 g/ha: rate 1000 g/ha; for pest or weed control at 250 g/ha: rate 250 g/ha
How it was run: as §1

[8] = test system: Alopecurus myosuroides (ALOMY); assay: as above; conditions: 312 h, evaluated after 13 days, read-out: Post-emergence activity ALOMY (100=total damage to plant; 0=no damage to plant); for pest or weed control at 1000 g/ha: rate 1000 g/ha; for pest or weed control at 250 g/ha: rate 250 g/ha
How it was run: as §1

Avena fatua (AVEFA) [9] = assay: as above; conditions: 312 h, evaluated after 13 days, read-out: Post-emergence activity AVEFA (100=total damage to plant; 0=no damage to plant); for pest or weed control at 1000 g/ha: rate 1000 g/ha; for pest or weed control at 250 g/ha: rate 250 g/ha
How it was run: as §1

[10] = test system: Amaranthus retroflexus (AMARE); assay: as above; conditions: 312 h, evaluated after 13 days, read-out: Post-emergence activity AMARE (100=total damage to plant; 0=no damage to plant); for pest or weed control at 1000 g/ha: rate 1000 g/ha; for pest or weed control at 250 g/ha: rate 250 g/ha
How it was run: as §1

[11] = test system: Echinochloa crus-galli (ECHCG); assay: as above; conditions: 312 h, evaluated after 13 days, read-out: Post-emergence activity ECHCG (100=total damage to plant; 0=no damage to plant); for pest or weed control at 1000 g/ha: rate 1000 g/ha; for pest or weed control at 250 g/ha: rate 250 g/ha
How it was run: as §1

Solanum nigrum (SOLNI) [12] = assay: as above; conditions: 312 h, evaluated after 13 days, read-out: Post-emergence activity SOLNI (100=total damage to plant; 0=no damage to plant); for pest or weed control at 1000 g/ha: rate 1000 g/ha; for pest or weed control at 250 g/ha: rate 250 g/ha
How it was run: as §1

Structure (SMILES) | pest or weed control at 1000 g/ha (Setaria faberi (SETFA) [1]) [%] | pest or weed control at 1000 g/ha [2] [%] | pest or weed control at 1000 g/ha (Avena fatua (AVEFA) [3]) [%] | pest or weed control at 1000 g/ha [4] [%] | pest or weed control at 1000 g/ha [5] [%] | pest or weed control at 1000 g/ha (Solanum nigrum (SOLNI) [6]) [%] | pest or weed control at 1000 g/ha (Setaria faberi (SETFA) [7]) [%] | pest or weed control at 1000 g/ha [8] [%] | pest or weed control at 1000 g/ha (Avena fatua (AVEFA) [9]) [%] | pest or weed control at 1000 g/ha [10] [%] | pest or weed control at 1000 g/ha [11] [%] | pest or weed control at 1000 g/ha (Solanum nigrum (SOLNI) [12]) [%] | further results
CCc1ccc(-c2ccc(Cl)cc2)cc1C1=C(OC(=O)CCOC)C(C)(C)OC(C)(C)C1=O [Compound D-21] | 100 | 90 | 50 | 0 | 100 | 0 | 100 | 100 | 90 | 10 | 100 | 30 | 
CCc1ccc(-c2ccc(Cl)cc2)cc1C1=C(OC(=O)COC)C(C)(C)OC(C)(C)C1=O [Compound D-12] | 100 | 90 | 60 | 0 | 100 | 0 | 100 | 90 | 90 | 0 | 100 | 0 | 
CCc1ccc(-c2ccc(Cl)cc2)cc1C1=C(OC(C)=O)C(C)(C)OC(C)(C)C1=O [Compound D-7] | 100 | 60 | 30 | 0 | 90 | 0 | 100 | 90 | 70 | 0 | 100 | 0 | 
Cc1ccc(-c2ccc(Cl)cc2F)cc1C1=C(O)C(C)(C)C(=O)C(C)(C)C1=O [Compound B-18] |  |  |  |  |  |  |  |  |  |  |  |  | pest or weed control at 250 g/ha (Setaria faberi (SETFA) [1]): 20%; pest or weed control at 250 g/ha [2]: 40%; pest or weed control at 250 g/ha (Avena fatua (AVEFA) [3]): 0%; pest or weed control at 250 g/ha [4]: 0%; pest or weed control at 250 g/ha [5]: 0%; pest or weed control at 250 g/ha (Solanum nigrum (SOLNI) [6]): 0%; pest or weed control at 250 g/ha (Setaria faberi (SETFA) [7]): 70%; pest or weed control at 250 g/ha [8]: 10%; pest or weed control at 250 g/ha (Avena fatua (AVEFA) [9]): 0%; pest or weed control at 250 g/ha [10]: 0%; pest or weed control at 250 g/ha [11]: 60%; pest or weed control at 250 g/ha (Solanum nigrum (SOLNI) [12]): 0%
CCc1ccc(-c2ccc(Cl)c(F)c2)cc1C1=C(O)C(C)(C)C(=O)C(C)(C)C1=O [Compound B-12] |  |  |  |  |  |  |  |  |  |  |  |  | pest or weed control at 250 g/ha (Setaria faberi (SETFA) [1]): 50%; pest or weed control at 250 g/ha [2]: 0%; pest or weed control at 250 g/ha (Avena fatua (AVEFA) [3]): 0%; pest or weed control at 250 g/ha [4]: 0%; pest or weed control at 250 g/ha [5]: 30%; pest or weed control at 250 g/ha (Solanum nigrum (SOLNI) [6]): 0%; pest or weed control at 250 g/ha (Setaria faberi (SETFA) [7]): 90%; pest or weed control at 250 g/ha [8]: 60%; pest or weed control at 250 g/ha (Avena fatua (AVEFA) [9]): 0%; pest or weed control at 250 g/ha [10]: 30%; pest or weed control at 250 g/ha [11]: 100%; pest or weed control at 250 g/ha (Solanum nigrum (SOLNI) [12]): 0%
CCc1ccc(-c2cnc(Cl)cc2C)cc1C1=C(O)C(C)(C)C(=O)C(C)(C)C1=O [Compound B-28] |  |  |  |  |  |  |  |  |  |  |  |  | pest or weed control at 250 g/ha (Setaria faberi (SETFA) [1]): 0%; pest or weed control at 250 g/ha [2]: 0%; pest or weed control at 250 g/ha (Avena fatua (AVEFA) [3]): 0%; pest or weed control at 250 g/ha [4]: 0%; pest or weed control at 250 g/ha [5]: 0%; pest or weed control at 250 g/ha (Solanum nigrum (SOLNI) [6]): 0%; pest or weed control at 250 g/ha (Setaria faberi (SETFA) [7]): 70%; pest or weed control at 250 g/ha [8]: 0%; pest or weed control at 250 g/ha (Avena fatua (AVEFA) [9]): 0%; pest or weed control at 250 g/ha [10]: 0%; pest or weed control at 250 g/ha [11]: 70%; pest or weed control at 250 g/ha (Solanum nigrum (SOLNI) [12]): 0%
Cc1ccc(-c2ccc(F)cc2F)cc1C1=C(O)C(C)(C)OC(C)(C)C1=O [Compound A-27] | 90 | 80 | 60 | 10 | 100 | 20 | 100 | 80 | 80 | 100 | 100 | 50 | 
Cc1ccc(-c2cc(F)cc(F)c2)cc1C1=C(O)C(C)(C)OC(C)(C)C1=O [Compound A-25] | 20 | 70 | 30 | 0 | 80 | 0 | 70 | 70 | 0 | 100 | 90 | 70 | 
Cc1ccc(-c2ccc(Cl)nc2C)cc1C1=C(O)C(C)(C)C(=O)C(C)(C)C1=O [Compound B-6] | 0 | 0 | 0 | 100 | 0 | 90 | 30 | 20 | 0 | 0 | 50 | 0 | 
CCc1ccc(-c2ccc(Cl)cc2)cc1C1=C(OC(=O)C(C)C)C(C)(C)OC(C)(C)C1=O [Compound D-9] | 90 | 20 | 0 | 0 | 70 | 0 | 90 | 30 | 0 | 0 | 100 | 0 | 
Cc1ccc(-c2ccc(F)c(F)c2)cc1C1=C(O)C(C)(C)OC(C)(C)C1=O [Compound A-24] | 90 | 80 | 60 | 20 | 100 | 20 | 100 | 100 | 80 | 90 | 100 | 70 | 
CCc1ccc(-c2ccc(Cl)cc2)cc1C1=C(OC(=O)C(C)(C)OC)C(C)(C)OC(C)(C)C1=O [Compound D-20] | 90 | 30 | 0 | 0 | 60 | 0 | 100 | 100 | 90 | 20 | 100 | 0 | 
